Test results published in US20150374676A1, “HELICASE-PRIMASE INHIBITORS FOR USE IN A METHOD OF TREATING ALZHEIMER'S DISEASE” (AICURIS GMBH & CO. KG, priority 2013, published 2015).
Read-outs that look alike come from different tables or passages of the source.

Test: Single-dose escalation pharmacokinetics in volunteers
Format: in vivo, human
Conditions: for AUC(0-t): read-out: AUC0-24h
Description: Exposure of the free base form of N-[5-(aminosulfonyl)-4-methyl-1,3-thiazol-2-yl]-N-methyl-2-[4-(2-pyridinyl)-phenyl]acetamide to the human body may be measured by high pressure liquid chromatography (HPLC) by looking at different pharmacokinetic parameters in suitable bodily fluids such as for instance blood plasma and urine, the most common parameters being the Cmax, the so-called area under the curve (AUC), and the terminal half-life (t1/2Z). Hereto, the person skilled in the art understands that said parameters are determined by using adequate bioanalytical methods with adequate sensitivity, specificity, ruggedness, stability and repeatability, as for instance a qualified liquid chromatography triple quad mass spectrometry based method coupled with a suitable extraction method for the separation of the analyte from, e.g. the blood plasma.
Therefore, pharmacokinetic studies in human subjects were undertaken following both single and multiple dose administrations of the crystalline mono mesylate monohydrate salt of N-[5-(aminosulfonyl)-4-methyl-1,3-thiazol-2-yl]-N-methyl-2-[4-(2-pyridinyl)phenyl]acetamide, wherein the particle size distribution is preferably defined by d(0.1) from 2 to 100 μm, d(0.5) from 30 to 210 μm and d(0.9) from 70 to 400 μm with a specific surface area of the particles less than 1.0 m^2/g, and more preferably defined by d(0.1) from 10 to 75 μm, d(0.5) from 100 to 175 μm, d(0.9) from 200 to 350 μm with a specific surface area of the particles less than 0.3 m^2/g.
Single oral doses of the crystalline mono mesylate monohydrate salt of N-[5-(aminosulfonyl)-4methyl1,3thiazol-2-yl]-N-methyl-2-[4-(2-pyridinyl)phenyl]acetamide using the formulations in accordance with example a and Table a, were administered to six volunteers per dose step. The overall shape of the plasma concentrations vs. time profiles were similar across all doses applied (see FIG. 4 and FIG. 6).
Table b: Pharmacokinetic parameters after ascending single oral doses of crystalline mono mesylate monohydrate salt of N-[5-(aminosulfonyl)-4-methyl-1,3-thiazol-2-yl]-N-methyl-2-[4-(2-pyridinyl)phenyl]acetamide in the formulations in accordance with table a wherein the particle size distribution is preferably defined by d(0.1) from 2 to 100 μm, d(0.5) from 30 to 210 μm and d(0.9) from 70 to 400 μm with a specific surface area of the particles less than 1.0 m^2/g, and more preferably defined by d(0.1) from 10 to 75 μm, d(0.5) from 100 to 175 μm, d(0.9) from 200 to 350 μm with a specific surface area of the particles less than 0.3 m^2/g.
AUC0-∞: Area under the analyte vs. time concentration from time of administration up to infinity, calculated as
wherein AUC0-last is defined as the area under the analyte vs. time concentration up to time of the last qualifiable concentration, calculated by linear up/log down summation and Clast is defined as last quantifiable observed analyte concentration. λz is the apparent terminal elimination rate constant, determined by linear regression of terminal points of In-linear analyte concentration-time curve.
Cmax is the maximal observed analyte concentration and tmax is the time to reach Cmax;
t1/2z is defined as the apparent terminal elimination half-life, calculated as
MRT: Mean Residence Time; calculated AUMC divided by AUC, wherein AUMC is the area under the first moment of the concentration-time curve from zero up to ∞ with extrapolation of the terminal phase and AUC is the area under the concentration-time curve from zero up to ∞ with extrapolation of the terminal phase.
CL/F refers to the clearance after oral administration of a drug and Ae refers to the amount of drug excreted in the urine.

t1/2z on average (40 mg dosage as free base equivalent, single oral dose): 72 ± 3 h
t1/2z on average (80 mg dosage as free base equivalent, single oral dose): 74 ± 5 h
t1/2z on average (160 mg dosage as free base equivalent, single oral dose): 63 ± 6 h
t1/2z on average (240 mg dosage as free base equivalent, single oral dose): 64 ± 5 h
t1/2z on average (320 mg dosage as free base equivalent, single oral dose): 57 ± 3 h
t1/2z on average (400 mg dosage as free base equivalent, single oral dose): 57 ± 4 h
t1/2z on average (480 mg dosage as free base equivalent, single oral dose): 53 ± 4 h
MRT (female, plasma, single oral dose 80 mg free base equivalent, females, human, mean, n = 6): 77 h
Tmax (female, plasma, single oral dose 80 mg free base equivalent, females, human, median, n = 6, read-out: tmax): 4 h
AUC(0-inf) (female, single oral dose 80 mg free base equivalent, females, human, mean, n = 6, free base in plasma): 96.2 µg·h/mL
Cmax (female, single oral dose 80 mg free base equivalent, females, human, mean, n = 6, free base in plasma, read-out: Cmax): 2 µg/mL
AUC(0-t) (human, plasma, 80 mg dosage as free base equivalent, single oral dose): 21.9 ± 2.06 µg·h/mL
Cmax (human, plasma, 80 mg dosage as free base equivalent, single oral dose, read-out: mean maximum blood plasma concentration (mean Cmax) of the free base): 1.31 ± 0.125 µg/mL
AUC(0-t) (human, plasma, 160 mg dosage as free base equivalent, single oral dose): 40.5 ± 16.7 µg·h/mL
Cmax (human, plasma, 160 mg dosage as free base equivalent, single oral dose, read-out: mean maximum blood plasma concentration (mean Cmax) of the free base): 2.61 ± 1.34 µg/mL
AUC(0-t) (human, plasma, 240 mg dosage as free base equivalent, single oral dose): 59.6 ± 12.8 µg·h/mL
Cmax (human, plasma, 240 mg dosage as free base equivalent, single oral dose, read-out: mean maximum blood plasma concentration (mean Cmax) of the free base): 3.6 ± 0.752 µg/mL
AUC(0-t) (human, plasma, 320 mg dosage as free base equivalent, single oral dose): 76.2 ± 27.6 µg·h/mL
Cmax (human, plasma, 320 mg dosage as free base equivalent, single oral dose, read-out: mean maximum blood plasma concentration (mean Cmax) of the free base): 4.65 ± 1.81 µg/mL
AUC(0-t) (human, plasma, 400 mg dosage as free base equivalent, single oral dose): 105 ± 25.7 µg·h/mL
Cmax (human, plasma, 400 mg dosage as free base equivalent, single oral dose, read-out: mean maximum blood plasma concentration (mean Cmax) of the free base): 6.93 ± 1.66 µg/mL
AUC(0-t) (human, plasma, 480 mg dosage as free base equivalent, single oral dose): 113 ± 34.3 µg·h/mL
Cmax (human, plasma, 480 mg dosage as free base equivalent, single oral dose, read-out: mean maximum blood plasma concentration (mean Cmax) of the free base): 6.92 ± 2.19 µg/mL
AUC(0-t) (male, human, plasma, 40 mg dosage as free base equivalent, single oral dose): 10.1 ± 3.11 µg·h/mL
Cmax (male, human, plasma, 40 mg dosage as free base equivalent, single oral dose, read-out: mean maximum blood plasma concentration (mean Cmax) of the free base): 0.608 ± 0.184 µg/mL
MRT (male, plasma, single oral dose 80 mg free base equivalent, males, human, mean, n = 6): 94 h
Tmax (male, plasma, single oral dose 80 mg free base equivalent, males, human, median, n = 6, read-out: tmax): 2.5 h
AUC(0-inf) (male, single oral dose 80 mg free base equivalent, males, human, mean, n = 6, free base in plasma): 87.2 µg·h/mL
Cmax (male, single oral dose 80 mg free base equivalent, males, human, mean, n = 6, free base in plasma, read-out: Cmax): 1.31 µg/mL
MRT (plasma, single oral dose 5 mg free base equivalent, human, mean, n = 6): 117 h
Tmax (plasma, single oral dose 5 mg free base equivalent, human, median, n = 6, read-out: tmax): 4 h
MRT (plasma, single oral dose 10 mg free base equivalent, human, mean, n = 6): 116 h
Tmax (plasma, single oral dose 10 mg free base equivalent, human, median, n = 6, read-out: tmax): 1.5 h
MRT (plasma, single oral dose 20 mg free base equivalent, human, mean, n = 6): 105 h
Tmax (plasma, single oral dose 20 mg free base equivalent, human, median, n = 6, read-out: tmax): 2.77 h
MRT (plasma, single oral dose 40 mg free base equivalent, human, mean, n = 6): 94 h
Tmax (plasma, single oral dose 40 mg free base equivalent, human, median, n = 6, read-out: tmax): 3.5 h
MRT (plasma, single oral dose 160 mg free base equivalent, human, mean, n = 6): 83 h
Tmax (plasma, single oral dose 160 mg free base equivalent, human, median, n = 6, read-out: tmax): 3.5 h
MRT (plasma, single oral dose 240 mg free base equivalent, human, mean, n = 6): 82 h
Tmax (plasma, single oral dose 240 mg free base equivalent, human, median, n = 6, read-out: tmax): 4 h
MRT (plasma, single oral dose 320 mg free base equivalent, human, mean, n = 6): 70 h
Tmax (plasma, single oral dose 320 mg free base equivalent, human, median, n = 6, read-out: tmax): 2.25 h
MRT (plasma, single oral dose 400 mg free base equivalent, human, mean, n = 6): 64 h
Tmax (plasma, single oral dose 400 mg free base equivalent, human, median, n = 6, read-out: tmax): 4.25 h
MRT (plasma, single oral dose 480 mg free base equivalent, human, mean, n = 6): 72 h
Tmax (plasma, single oral dose 480 mg free base equivalent, human, median, n = 6, read-out: tmax): 3.25 h
MRT (plasma, single oral dose 600 mg free base equivalent, human, mean, n = 6): 65 h
Tmax (plasma, single oral dose 600 mg free base equivalent, human, median, n = 6, read-out: tmax): 4.25 h
Tmax (plasma, single oral doses 5-600 mg free base equivalent, human, no obvious relation to dose, read-out: median tmax, range over doses): 1.5 to 4.25 h
half-life (plasma, single oral doses 5-600 mg free base equivalent, human, read-out: mean terminal elimination half-life (t1/2z), range over doses): 52 to 85 h
dose dependence of maximum plasma concentrations (single doses from 5 mg to 400 mg as free base equivalent, human): linearly related to doses
dose dependence of AUC0-∞ (single doses from 5 mg to 480 mg as free base equivalent, human): dose-proportional increase
SMILES: CS(=O)(=O)O.Cc1nc(N(C)C(=O)Cc2ccc(-c3ccccn3)cc2)sc1S(N)(=O)=O [mono mesylate monohydrate salt, N-[5-(aminosulfonyl)-4-methyl-1,3-thiazol-2-yl]-N-methyl-2-[4-(2-pyridinyl)-phenyl]acetamide mono methanesulfonic acid monohydrate]
gender-related difference in exposure (single dose of 80 mg as free base equivalent, after normalization to body weight): No clinical relevant gender-related difference in exposure
exposure as shown by AUC0-∞ at the highest dose (single dose of 600 mg as free base equivalent, human): did not cause any further rise of exposure
